System: skin
Experiment: Affymetrix microarray of skin, DBP-4 hr and analogs vs. untreated; gene selection by log-2 fold change, Wilcoxon, Kendall tau (Tables 8, 9)
Type: in vivo, mouse

CC(C)=O [Acetone]
Log2 Expression Level (gene #1 of Table 8): 5.63
Log2 Expression Level (gene #2 of Table 8): 7.13
Log2 Expression Level (gene #3 of Table 8): 8.73
Log2 Expression Level (gene #4 of Table 8): 8.73
Log2 Expression Level (gene #5 of Table 8): 6.36
Log2 Expression Level (gene #6 of Table 8): 5.62
Log2 Expression Level (gene #7 of Table 8): 5.07
Log2 Expression Level (gene #8 of Table 8): 5.62
Log2 Expression Level (gene #9 of Table 8): 5.62
Log2 Expression Level (gene #10 of Table 8): 5.62
Log2 Expression Level (gene #11 of Table 8): 5.07
Log2 Expression Level (gene #12 of Table 8): 5.07
Log2 Expression Level (gene #13 of Table 8): 5.07
Log2 Expression Level (gene #14 of Table 8): 4.90
Log2 Expression Level (gene #15 of Table 8): 4.90
Log2 Expression Level (gene #16 of Table 8): 6.15
Log2 Expression Level (gene #17 of Table 8): 8.79
Log2 Expression Level (gene #18 of Table 8): 8.79
Log2 Expression Level (gene #19 of Table 8): 8.22
Log2 Expression Level (gene #20 of Table 8): 7.12
Log2 Expression Level (gene #21 of Table 8): 7.81
Log2 Expression Level (gene #22 of Table 8): 7.76
Log2 Expression Level (gene #23 of Table 8): 5.76
Log2 Expression Level (gene #24 of Table 8): 6.97
Log2 Expression Level (gene #25 of Table 8): 6.97
Log2 Expression Level (gene #26 of Table 8): 6.97
Log2 Expression Level (gene #27 of Table 8): 6.97
Log2 Expression Level (gene #28 of Table 8): 6.97
Log2 Expression Level (gene #29 of Table 8): 4.96
Log2 Expression Level (gene #30 of Table 8): 8.52
Log2 Expression Level (gene #31 of Table 8): 8.52
Log2 Expression Level (gene #32 of Table 8): 8.52
Log2 Expression Level (gene #33 of Table 8): 5.65
Log2 Expression Level (gene #34 of Table 8): 6.46
Log2 Expression Level (gene #35 of Table 8): 6.46
Log2 Expression Level (gene #36 of Table 8): 8.73
Log2 Expression Level (gene #37 of Table 8): 8.73
Log2 Expression Level (gene #38 of Table 8): 8.73
Log2 Expression Level (gene #39 of Table 8): 7.16
Log2 Expression Level (gene #40 of Table 8): 7.23
Log2 Expression Level (gene #41 of Table 8): 7.42
Log2 Expression Level (gene #42 of Table 8): 7.03
Log2 Expression Level (gene #43 of Table 8): 7.03
Log2 Expression Level (gene #44 of Table 8): 7.42
Log2 Expression Level (gene #45 of Table 8): 7.03
Log2 Expression Level (gene #46 of Table 8): 7.42
Log2 Expression Level (gene #47 of Table 8): 7.47
Log2 Expression Level (gene #48 of Table 8): 7.47
Log2 Expression Level (gene #49 of Table 8): 7.47
Log2 Expression Level (gene #50 of Table 8): 7.97
Log2 Expression Level (gene #51 of Table 8): 7.28
Log2 Expression Level (gene #52 of Table 8): 9.55
Log2 Expression Level (gene #53 of Table 8): 7.74
Log2 Expression Level (gene #54 of Table 8): 9.23
Log2 Expression Level (gene #55 of Table 8): 6.67
Log2 Expression Level (gene #56 of Table 8): 8.58
Log2 Expression Level (gene #57 of Table 8): 8.52
Log2 Expression Level (gene #58 of Table 8): 8.50
Log2 Expression Level (gene #59 of Table 8): 8.28
Log2 Expression Level (gene #60 of Table 8): 6.59
Log2 Expression Level (gene #61 of Table 8): 11.19
Log2 Expression Level (gene #62 of Table 8): 7.64
Log2 Expression Level (gene #63 of Table 8): 10.28
Log2 Expression Level (gene #64 of Table 8): 10.06
Log2 Expression Level (gene #65 of Table 8): 6.46
Log2 Expression Level (gene #66 of Table 8): 7.87
Log2 Expression Level (gene #67 of Table 8): 4.12
Log2 Expression Level (gene #68 of Table 8): 6.73
Log2 Expression Level (gene #69 of Table 8): 4.99
Log2 Expression Level (gene #70 of Table 8): 4.18
Log2 Expression Level (gene #71 of Table 8): 6.68
Log2 Expression Level (gene #72 of Table 8): 7.93
Log2 Expression Level (gene #73 of Table 8): 5.55
Log2 Expression Level (gene #74 of Table 8): 7.00
Log2 Expression Level (gene #75 of Table 8): 8.22
Log2 Expression Level (gene #76 of Table 8): 4.30
Log2 Expression Level (gene #77 of Table 8): 8.48
Log2 Expression Level (gene #78 of Table 8): 9.31
Log2 Expression Level (gene #79 of Table 8): 6.49
Log2 Expression Level (gene #80 of Table 8): 12.42
Log2 Expression Level (gene #81 of Table 8): 5.50
Log2 Expression Level (gene #82 of Table 8): 5.03
Log2 Expression Level (gene #83 of Table 8): 6.32
Log2 Expression Level (gene #84 of Table 8): 6.04
Log2 Expression Level (gene #85 of Table 8): 4.71
Log2 Expression Level (gene #86 of Table 8): 6.08
Log2 Expression Level (gene #87 of Table 8): 8.85
Log2 Expression Level (gene #88 of Table 8): 4.54
Log2 Expression Level (gene #89 of Table 8): 5.23
Log2 Expression Level (gene #90 of Table 8): 9.45
Log2 Expression Level (gene #91 of Table 8): 6.14
Log2 Expression Level (gene #92 of Table 8): 6.80
Log2 Expression Level (gene #93 of Table 8): 8.25
Log2 Expression Level (gene #94 of Table 8): 7.10
Log2 Expression Level (gene #95 of Table 8): 4.96
Log2 Expression Level (gene #96 of Table 8): 6.62
Log2 Expression Level (gene #97 of Table 8): 5.16
Log2 Expression Level (gene #98 of Table 8): 4.29
Log2 Expression Level (gene #99 of Table 8): 8.55
Log2 Expression Level (gene #100 of Table 8): 6.49

CCN(CC)C(=O)c1cccc(C)c1 [DEET, N,N-diethyl-toluamide]
Log2 Expression Level (gene #1 of Table 8): 6.74
Log2 Expression Level (gene #2 of Table 8): 6.44
Log2 Expression Level (gene #3 of Table 8): 9.66
Log2 Expression Level (gene #4 of Table 8): 9.66
Log2 Expression Level (gene #5 of Table 8): 8.20
Log2 Expression Level (gene #6 of Table 8): 7.42
Log2 Expression Level (gene #7 of Table 8): 6.76
Log2 Expression Level (gene #8 of Table 8): 7.42
Log2 Expression Level (gene #9 of Table 8): 7.42
Log2 Expression Level (gene #10 of Table 8): 7.42
Log2 Expression Level (gene #11 of Table 8): 6.76
Log2 Expression Level (gene #12 of Table 8): 6.76
Log2 Expression Level (gene #13 of Table 8): 6.76
Log2 Expression Level (gene #14 of Table 8): 5.31
Log2 Expression Level (gene #15 of Table 8): 5.31
Log2 Expression Level (gene #16 of Table 8): 7.68
Log2 Expression Level (gene #17 of Table 8): 9.60
Log2 Expression Level (gene #18 of Table 8): 9.60
Log2 Expression Level (gene #19 of Table 8): 10.04
Log2 Expression Level (gene #20 of Table 8): 11.87
Log2 Expression Level (gene #21 of Table 8): 9.61
Log2 Expression Level (gene #22 of Table 8): 8.47
Log2 Expression Level (gene #23 of Table 8): 7.75
Log2 Expression Level (gene #24 of Table 8): 8.21
Log2 Expression Level (gene #25 of Table 8): 8.21
Log2 Expression Level (gene #26 of Table 8): 8.83
Log2 Expression Level (gene #27 of Table 8): 8.83
Log2 Expression Level (gene #28 of Table 8): 8.83
Log2 Expression Level (gene #29 of Table 8): 7.20
Log2 Expression Level (gene #30 of Table 8): 9.06
Log2 Expression Level (gene #31 of Table 8): 9.06
Log2 Expression Level (gene #32 of Table 8): 9.06
Log2 Expression Level (gene #33 of Table 8): 6.10
Log2 Expression Level (gene #34 of Table 8): 7.43
Log2 Expression Level (gene #35 of Table 8): 7.43
Log2 Expression Level (gene #36 of Table 8): 9.66
Log2 Expression Level (gene #37 of Table 8): 9.66
Log2 Expression Level (gene #38 of Table 8): 9.66
Log2 Expression Level (gene #39 of Table 8): 8.11
Log2 Expression Level (gene #40 of Table 8): 8.22
Log2 Expression Level (gene #41 of Table 8): 8.43
Log2 Expression Level (gene #42 of Table 8): 7.97
Log2 Expression Level (gene #43 of Table 8): 7.97
Log2 Expression Level (gene #44 of Table 8): 8.43
Log2 Expression Level (gene #45 of Table 8): 7.97
Log2 Expression Level (gene #46 of Table 8): 8.43
Log2 Expression Level (gene #47 of Table 8): 9.23
Log2 Expression Level (gene #48 of Table 8): 9.23
Log2 Expression Level (gene #49 of Table 8): 9.23
Log2 Expression Level (gene #50 of Table 8): 10.17
Log2 Expression Level (gene #51 of Table 8): 8.15
Log2 Expression Level (gene #52 of Table 8): 10.64
Log2 Expression Level (gene #53 of Table 8): 9.22
Log2 Expression Level (gene #54 of Table 8): 10.01
Log2 Expression Level (gene #55 of Table 8): 8.18
Log2 Expression Level (gene #56 of Table 8): 10.41
Log2 Expression Level (gene #57 of Table 8): 9.06
Log2 Expression Level (gene #58 of Table 8): 9.46
Log2 Expression Level (gene #59 of Table 8): 8.46
Log2 Expression Level (gene #60 of Table 8): 7.24
Log2 Expression Level (gene #61 of Table 8): 12.16
Log2 Expression Level (gene #62 of Table 8): 8.52
Log2 Expression Level (gene #63 of Table 8): 11.76
Log2 Expression Level (gene #64 of Table 8): 11.40
Log2 Expression Level (gene #65 of Table 8): 8.25
Log2 Expression Level (gene #66 of Table 8): 9.07
Log2 Expression Level (gene #67 of Table 8): 5.71
Log2 Expression Level (gene #68 of Table 8): 10.87
Log2 Expression Level (gene #69 of Table 8): 7.06
Log2 Expression Level (gene #70 of Table 8): 5.72
Log2 Expression Level (gene #71 of Table 8): 7.84
Log2 Expression Level (gene #72 of Table 8): 9.65
Log2 Expression Level (gene #73 of Table 8): 8.88
Log2 Expression Level (gene #74 of Table 8): 7.48
Log2 Expression Level (gene #75 of Table 8): 10.04
Log2 Expression Level (gene #76 of Table 8): 5.76
Log2 Expression Level (gene #77 of Table 8): 9.62
Log2 Expression Level (gene #78 of Table 8): 9.85
Log2 Expression Level (gene #79 of Table 8): 8.03
Log2 Expression Level (gene #80 of Table 8): 13.18
Log2 Expression Level (gene #81 of Table 8): 6.94
Log2 Expression Level (gene #82 of Table 8): 6.28
Log2 Expression Level (gene #83 of Table 8): 8.09
Log2 Expression Level (gene #84 of Table 8): 8.70
Log2 Expression Level (gene #85 of Table 8): 9.57
Log2 Expression Level (gene #86 of Table 8): 8.02
Log2 Expression Level (gene #87 of Table 8): 11.32
Log2 Expression Level (gene #88 of Table 8): 10.03
Log2 Expression Level (gene #89 of Table 8): 6.25
Log2 Expression Level (gene #90 of Table 8): 11.13
Log2 Expression Level (gene #91 of Table 8): 9.01
Log2 Expression Level (gene #92 of Table 8): 7.14
Log2 Expression Level (gene #93 of Table 8): 10.13
Log2 Expression Level (gene #94 of Table 8): 9.19
Log2 Expression Level (gene #95 of Table 8): 7.20
Log2 Expression Level (gene #96 of Table 8): 9.02
Log2 Expression Level (gene #97 of Table 8): 5.86
Log2 Expression Level (gene #98 of Table 8): 6.82
Log2 Expression Level (gene #99 of Table 8): 10.05
Log2 Expression Level (gene #100 of Table 8): 8.86
